# Measured values from US20220313640A1 (Concert Pharmaceuticals, Inc., priority 2019, published 2022).
# Read-outs that look alike come from different tables or passages of the source.
# What was measured:
# [1] = Nephrotoxicity of Compound 100 and non-deuterated D-serine in male Sprague-Dawley rats, 150 mg/kg PO (BUN, creatinine, GGT); format: in vivo
# Excerpt: (§1) The pharmacokinetic profile of Compound 100 was investigated in male Sprague-Dawley rats compared with that of non-deuterated D-serine. […] Plasma was collected and analyzed for Compound 100 and non-deuterated D-Serine. Additional blood was collected and analyzed for the full clinical chemistry profile.
# [2] = Pharmacokinetics of non-deuterated D-serine in male Sprague-Dawley rats, 300 mg/kg PO; format: in vivo; conditions: rat, mean
# Procedure: (§2) The hippocampus, cortex and plasma were collected and analyzed. Additional blood was collected and were analyzed for the full clinical chemistry profile. Urine was also collected and examined for glucose and total protein. […] The mean plasma, hippocampus, and cortex concentration at 1 hour are 19200 ng/mL, 674 ng/g, and 754 ng/g; respectively. The mean plasma, hippocampus, and cortex concentrations at 8 hours were 11250 ng/mL, 17725 ng/g, and 11875 ng/g, respectively. […] Blood urea nitrogen and creatinine levels were elevated.
# [3] = Pharmacokinetics dose response of non-deuterated D-serine in male Sprague-Dawley rats, 30-300 mg/kg PO; format: in vivo; conditions: rat, plasma; for Tmax: po
# Excerpt: (§3) The pharmacokinetic profile of non-deuterated D-serine was investigated in male Sprague-Dawley rats. […] Plasma was collected and analyzed for the non-deuterated D-serine. Additional blood was collected and analyzed for the full clinical chemistry profile.
# [4] = Pharmacokinetics of deuterated and non-deuterated D-serine in male Sprague Dawley rats, PO 10 mg/kg; format: in vivo; conditions: rat, 0.5% Methylcellulose, plasma
# Procedure: Three rats were used for each group. Blood was collected at the following time points: for IV dosing: pre-dose, 0.05, 0.167, 0.5, 1, 2, 4, 6, 8 and 12 hours post-dose; for PO dosing: pre-dose, 0.25, 0.5, 1, 2, 4, 6, 8 and 12 hours post-dose PO. Urine was collected at pre-dose (minimum 12 hours), 0-6, 6-12 and 12-24 hours. Plasma samples were analyzed and quantified for dosed compound LC-MS/MS.
# [5] = Randomized single dose crossover plasma PK of Compound 100 versus D-serine in healthy volunteers; format: in vivo, human; conditions: for Tmax / AUC(0-inf) / Cmax / half-life: human, plasma; for Tmax / AUC(0-inf) / Cmax / half-life / CL/F: single 0.25 g oral solution, fasted, N = 11; for AUC(0-inf) / Cmax / half-life / CL/F: mean
# Procedure: Thirteen healthy volunteers between the ages of 18 to 55 were enrolled in the study. […] Period 1 dosing occurred within 14 days of screening. […] Similarly, in Period 2, the 2 subjects in the sentinel group received the alternate treatment after a 4-day washout and approximately 2 days prior to the remaining subjects receiving their Period 2 dose. […] Water consumption was restricted from 1 hour prior to dosing until 1 hour after dosing. Subjects fasted for approximately 3 hours after dosing and remained upright or semi-supine during this period. A meal was provided 3-4 hours after the dose. Meal times and contents were standardized until the last blood sample was collected for PK assessments. […] Plasma samples were stored in labeled tubes at approximately -80° C.
# [6] = Nephrotoxicity dose response of non-deuterated D-serine in male Sprague-Dawley rats, 30-300 mg/kg PO; format: in vivo; conditions: 24 hr samples at the 150 and 300 mg/kg doses, compared to control and reference values
# Excerpt: as §3
# [7] = Pharmacokinetic profile of Compound 100 versus non-deuterated D-serine in male Sprague-Dawley rats, 150 mg/kg PO; format: in vivo; conditions: fasted, plasma, mean
# Excerpt: as §1
# [8] = Nephrotoxicity of non-deuterated D-serine at 300 mg/kg in male Sprague-Dawley rats (clinical chemistry, urine); format: in vivo; conditions: 300 mg/kg PO
# Procedure: as §2
# [9] = Nephrotoxicity comparison of Compound 100 and non-deuterated D-serine at doses from 150 mg/kg to 750 mg/kg; format: in vivo, rats; conditions: for changes in BUN or creatinine: doses from 150 mg/kg to 750 mg/kg PO
# [10] = molecular target: T1, human NMDAR subunits GluN1 and GluN2A (Homo sapiens, UniProt Q05586); test: NMDA receptor activation in automated patch clamp system (ScreenPatch), HEK293 cells; format: cell-based; conditions: 0.003 to 10 μM, Compound 100 versus D-serine
# T1 construct: expressed in transfected cells; host or cells: HEK293
# Procedure: Peak current and steady state current were measured. The activity at the NMDA receptor was indistinguishable for the two compounds.
# [11] = Multiple Ascending Dose (MAD) study plasma PK, 7 consecutive days; conditions: for AUC(0-inf) / AUC(0-t) / Cmax / Tmax: human, plasma, po
# Excerpt: The caloric content of the meal was in accordance with the FDA guidance for food-effect studies.
# [12] = Safety and tolerability in SAD and MAD studies; format: in vivo, human
# Procedure: (§4) The 0.5, 2, 3, and 4 g doses were evaluated under fasted conditions (after an overnight fast) while the 1 g dose was evaluated under both fasted and fed conditions (within 30 minutes of consumption of a meal) in a crossover design. […] Blood samples for PK analysis were obtained at several time points after dose administration. Safety assessments included monitoring of adverse events and clinical laboratory testing including monitoring of kidney function. Neurocognitive effects of CTP-692 using CogScreen® were also explored.
# [13] = Safety and tolerability in single dose crossover study in healthy volunteers; format: in vivo, human; conditions: single 0.25 g oral dose
# Excerpt: Thirteen healthy volunteers between the ages of 18 to 55 were enrolled in the study.
# Period 1 dosing occurred within 14 days of screening.
# [14] = Single Ascending Dose (SAD) study plasma PK in healthy volunteers; format: in vivo, human; conditions: for half-life / AUC(0-inf) / Cmax / Tmax: human, plasma; for Tmax: median
# Procedure: as §4, with “function.” for “function. Neurocognitive effects of CTP-692 using CogScreen® were also explored.”
# [15] = Pharmacokinetic profile of Compound 100 in male Sprague-Dawley rats: plasma, hippocampus and cortex concentration after 30 mg/kg PO; format: in vivo; conditions: fasted, 1 hr post dose, mean
# Procedure: The mean plasma, hippocampus, and cortex concentrations at 1 hour were 19200 ng/mL, 674 ng/g, and 754 ng/g, respectively. The mean plasma, hippocampus, and cortex concentrations at 6 hours were 1780 ng/mL, 1385 ng/g, and 936 ng/g, respectively.
# [16] = 150 mg/kg PO, fasted, mean (CV %)
# [17] = dose escalation 150 mg/kg to 750 mg/kg
# [18] = po, 0.5 g, 0.5 g single oral dose, fasted, arithmetic mean
# [19] = po, 1 g, 1 g (fed) single oral dose, arithmetic mean
# [20] = po, 1 g, 1 g single oral dose, fasted, arithmetic mean
# [21] = po, 2 g, 2 g single oral dose, fasted, arithmetic mean
# [22] = po, 3 g, 3 g single oral dose, fasted, arithmetic mean
# [23] = po, 4 g, 4 g single oral dose, fasted, arithmetic mean
compound,measurement,setting,value
"NC(CO)C(=O)O (stereo in doubt) [Non-deuterated D-Serine, D-serine]",levels of biomarkers of nephrotoxicity,[1],caused an increase
same,blood urea nitrogen (BUN) level,[1]; 8 hr and 24 hr serum samples,Elevated levels
same,creatinine level,[1]; 24 hr serum samples,Elevated levels
same,gamma glutamyl transferase (GGT) level,[1]; 24 hr serum samples,Elevated levels
same,concentration at 8 h,"[2]; cortex, endogenous level not subtracted, read-out: Cortex concentration",11900 ng/g
same,Tmax,"[2]; fasted, plasma",0.5 h
same,AUC(0-inf),"[2]; fasted, plasma, endogenous level subtracted",500 µg·h/mL
same,concentration at 8 h,"[2]; hippocampus, endogenous level not subtracted, read-out: Hippocampus concentration",17700 ng/g
same,concentration at 8 h,"[2]; plasma, endogenous level subtracted, read-out: Plasma concentration",11200 ng/mL
same,AUC(0-inf),[3]; [16],349 µg·h/mL
same,Cmax,[3]; [16],180000 ng/mL
same,Tmax,"[3]; 30 mg/kg, 30 mg/kg PO, fasted, mean",0.5 h
same,Tmax,"[3]; 75 mg/kg, 75 mg/kg PO, fasted, mean",0.5 h
same,Tmax,"[3]; 100 mg/kg, 100 mg/kg PO, fasted, mean",0.5 h
same,Tmax,"[3]; 150 mg/kg, 150 mg/kg PO, fasted, mean",0.3 h
same,Tmax,"[3]; 300 mg/kg, 300 mg/kg PO, fasted, mean",0.5 h
same,Tmax,"[3]; 300 mg/kg, all doses 30, 75, 100, 150, and 300 mg/kg PO",0.3 to 0.5 h
same,Tmax,[4],0.417 h
same,Tmax,[5],1 h
same,AUC(0-inf),[5],32.5 µg·h/mL
same,Cmax,[5],4090 ng/mL
same,half-life,[5],17.2 h
same,CL/F,[5],7.9 L/h
same,creatinine level,[6],Elevated levels
same,gamma glutamyl transferase (GGT) level,[6],Elevated levels
same,urea nitrogen level,[6],Elevated levels
same,AUC(0-inf),"[7]; male, Sprague-Dawley, rat",349 µg·h/mL
same,Cmax,"[7]; male, Sprague-Dawley, rat, read-out: Cmax",180000 ng/mL
same,Blood urea nitrogen level,[8],elevated
same,creatinine level,[8],elevated
same,glucose in urine,[8],presence of glucose was observed
same,gross signs of nephrotoxicity,[9]; [17],only observed in rats receiving non-deuterated D-serine
same,changes in BUN or creatinine,[9],increasingly elevated levels
same,activity at the NMDA receptor (peak current and steady state current),[10],indistinguishable
"[2H][C@@](N)(CO)C(=O)O [Compound 100, (2R)-2-amino-2-deutero-3-hydroxy-propanoic acid]",Accumulation,[11]; following 7 consecutive days of administration,minimal to modest
same,dose-exposure relationship,[11]; following single and multiple doses (at Day 7),linear
same,AUC(0-inf),[11]; 1 g,263 µg·h/mL
same,AUC(0-t),[11]; 1 g,175 µg·h/mL
same,Cmax,[11]; 1 g,25300 ng/mL
same,Tmax,[11]; 1 g,1.5 h
same,AUC(0-inf),[11]; 2 g,522 µg·h/mL
same,AUC(0-t),[11]; 2 g,333 µg·h/mL
same,Cmax,[11]; 2 g,52000 ng/mL
same,Tmax,[11]; 2 g,1 h
same,AUC(0-inf),[11]; 4 g,911 µg·h/mL
same,AUC(0-t),[11]; 4 g,539 µg·h/mL
same,Cmax,[11]; 4 g,70800 ng/mL
same,Tmax,[11]; 4 g,2 h
same,levels of biomarkers of nephrotoxicity,[1],did not increase
same,effects on kidney function (serum and urine kidney function parameters),[12]; SAD and MAD studies,no apparent Compound 100-related effects on kidney function
same,effects on other clinical laboratory parameters,[12]; SAD and MAD studies,no clinically significant Compound 100-related effects
same,most common treatment-related adverse event,[12]; SAD and MAD studies,headache
same,neurocognitive effects (CogScreen),"[12]; SAD and MAD studies, exploratory",no evidence of adverse effects on neurocognitive functioning
same,tolerability,"[12]; SAD and MAD studies, healthy volunteers",well-tolerated
same,Compound 100-related adverse events,"[12]; highest once-daily dose of 4 g, both studies",no Compound 100-related adverse events were reported
same,adverse events related to Compound 100,[13],mild headache (1 subject) and fatigue (2 subjects)
same,serious adverse events,[13],no serious adverse events were reported
same,tolerability,[13],generally well tolerated
same,Tmax,[5],1.5 h
same,AUC(0-inf),[5],38.7 µg·h/mL
same,Cmax,[5],4550 ng/mL
same,half-life,[5],18.3 h
same,plasma exposure compared to D-serine,[5]; single 0.25 g oral dose,increased plasma exposure
same,CL/F,[5],6.6 L/h
same,AUCinf,[7],383 µg·h/mL
same,Cmax,[7],186000 ng/mL
same,Tmax,[7],0.667 h
same,"exposure as measured by AUC and Cmax, compared with non-deuterated D-serine",[9]; [17],greater
same,gross signs of nephrotoxicity,[9]; [17],not Compound 100
same,changes in BUN or creatinine,[9],minimal changes
same,CL/F,"[14]; 0.5 g single oral dose, fasted, arithmetic mean",6.17 L/h
same,CL/F,"[14]; 1 g (fed) single oral dose, arithmetic mean",5.99 L/h
same,CL/F,"[14]; 1 g single oral dose, fasted, arithmetic mean",6.28 L/h
same,CL/F,"[14]; 2 g single oral dose, fasted, arithmetic mean",6.56 L/h
same,CL/F,"[14]; 3 g single oral dose, fasted, arithmetic mean",6.68 L/h
same,CL/F,"[14]; 4 g single oral dose, fasted, arithmetic mean",6.69 L/h
same,half-life,"[14]; oral, SAD and MAD studies, human plasma, read-out: terminal t1/2 (converted)",~19 h
same,AUC(0-inf),[14]; [18],82.2 µg·h/mL
same,Cmax,[14]; [18],11000 ng/mL
same,half-life,"[14]; po, 0.5 g, 0.5 g single oral dose, fasted, arithmetic mean, read-out: t1/2 (converted)",15.9 h
same,Tmax,"[14]; po, 0.5 g, 0.5 g single oral dose, fasted",1 h
same,AUC(0-inf),[14]; [19],173 µg·h/mL
same,Cmax,[14]; [19],15300 ng/mL
same,half-life,"[14]; po, 1 g, 1 g (fed) single oral dose, arithmetic mean, read-out: t1/2 (converted)",17.9 h
same,Tmax,"[14]; po, 1 g, 1 g (fed) single oral dose",2 h
same,AUC(0-inf),[14]; [20],164 µg·h/mL
same,Cmax,[14]; [20],22300 ng/mL
same,half-life,"[14]; po, 1 g, 1 g single oral dose, fasted, arithmetic mean, read-out: t1/2 (converted)",19.2 h
same,Tmax,"[14]; po, 1 g, 1 g single oral dose, fasted",1 h
same,AUC(0-inf),[14]; [21],315 µg·h/mL
same,Cmax,[14]; [21],46300 ng/mL
same,half-life,"[14]; po, 2 g, 2 g single oral dose, fasted, arithmetic mean, read-out: t1/2 (converted)",20.2 h
same,Tmax,"[14]; po, 2 g, 2 g single oral dose, fasted",1 h
same,AUC(0-inf),[14]; [22],489 µg·h/mL
same,Cmax,[14]; [22],69100 ng/mL
same,half-life,"[14]; po, 3 g, 3 g single oral dose, fasted, arithmetic mean, read-out: t1/2 (converted)",20.6 h
same,Tmax,"[14]; po, 3 g, 3 g single oral dose, fasted",1 h
same,AUC(0-inf),[14]; [23],618 µg·h/mL
same,Cmax,[14]; [23],96500 ng/mL
same,half-life,"[14]; po, 4 g, 4 g single oral dose, fasted, arithmetic mean, read-out: t1/2 (converted)",18.4 h
same,Tmax,"[14]; po, 4 g, 4 g single oral dose, fasted",1 h
same,activity at the NMDA receptor (peak current and steady state current),[10],indistinguishable
same,Cortex concentration,[15],754 ng/g
same,Hippocampus concentration,[15],674 ng/g
same,Plasma concentration,[15],19200 ng/mL
